Test results published in patent US10280159B2 (AbbVie Deutschland GmbH & Co. KG, priority 2015, dated 2019).

How the values were obtained:
Format in all cases: cell-based
human S1PR5 = target: T1, human S1PR5 (Homo sapiens, UniProt Q9H228); test: Intracellular Ca2+ release (FLIPR) agonist potency, S1P5; conditions: recombinant CHO-K1 cells expressing human S1PR5, aequorin, Gq/i5; Calcium 5 FLIPR; read-out: S1P5 EC50 range
T1 construct: host or cells: CHO-K1
Method: (§1) Agonistic activity was measured using the method described below.
(§2) Intracellular Ca^2+ Release
(§3) Agonist potency and intrinsic activity was assessed by measurement of intracellular Ca^2+ release. Recombinant CHO-K1 cells (Euroscreen, Brussels, Belgium) expressing human S1PR5, S1PR1, S1PR3 or S1PR4 receptors, aequorin, and GTP binding protein Gq/i5 were cultured using a medium containing nutrient mixture F-12 Ham (Sigma-Aldrich) with 10% FBS, and 100 μg/mL gentamicin and equilibrated at 5% CO2.
(§4) Phospho-fingolimod was used as positive control. Antagonists were pre-incubated for 10 min with cells before addition of the agonist (phospho-fingolimod at EC80). Measurements were performed using a fluorometric imaging plate reader FLIPR®tetra (Molecular Devices). Agonist at the human S1P receptors were characterized by deducing EC50 (potency) values from a nonlinear fit to the measured fluorescence raw data after normalization to the reference agonist (phospho-fingolimod) curve.

human S1PR4 = target: T2, human S1PR4 (Homo sapiens, UniProt O95977); test: Intracellular Ca2+ release (FLIPR) agonist potency, S1P4; conditions: recombinant CHO-K1 cells expressing human S1PR4, aequorin, Gq/i5; Calcium 5 FLIPR; read-out: S1P4 EC50
T2 construct: host or cells: CHO-K1
T2 sequence (O95977 1-384): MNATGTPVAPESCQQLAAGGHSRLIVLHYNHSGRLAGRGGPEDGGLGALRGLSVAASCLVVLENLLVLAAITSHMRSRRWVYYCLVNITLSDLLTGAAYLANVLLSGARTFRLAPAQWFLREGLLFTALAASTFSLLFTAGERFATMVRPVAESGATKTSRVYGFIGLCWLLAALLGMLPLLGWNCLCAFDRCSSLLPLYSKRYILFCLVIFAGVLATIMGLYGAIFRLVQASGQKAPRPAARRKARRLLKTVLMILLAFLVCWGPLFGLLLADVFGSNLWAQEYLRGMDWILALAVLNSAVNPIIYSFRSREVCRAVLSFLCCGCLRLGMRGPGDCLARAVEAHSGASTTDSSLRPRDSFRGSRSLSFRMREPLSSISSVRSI
Method: as §1, §2, §3, §4

human S1PR1 = target: T3, human S1PR1 (Homo sapiens, UniProt P21453); test: Intracellular Ca2+ release (FLIPR) agonist potency, S1P1; conditions: recombinant CHO-K1 cells expressing human S1PR1, aequorin, Gq/i5; Calcium 5 FLIPR; read-out: S1P1 EC50
T3 construct: host or cells: CHO-K1
T3 sequence (P21453 whole entry): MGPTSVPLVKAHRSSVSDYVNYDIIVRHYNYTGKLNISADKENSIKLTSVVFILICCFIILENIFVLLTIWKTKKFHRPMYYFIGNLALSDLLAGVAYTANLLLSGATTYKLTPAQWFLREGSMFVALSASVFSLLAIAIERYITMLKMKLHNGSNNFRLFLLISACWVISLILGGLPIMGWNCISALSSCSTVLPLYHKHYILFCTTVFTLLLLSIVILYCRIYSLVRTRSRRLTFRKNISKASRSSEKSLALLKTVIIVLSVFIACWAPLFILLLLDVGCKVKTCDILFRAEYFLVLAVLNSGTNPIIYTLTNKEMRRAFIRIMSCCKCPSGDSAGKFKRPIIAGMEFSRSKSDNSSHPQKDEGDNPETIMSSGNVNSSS
Method: as §1, §2, §3, §4

T1 sequence (Q9H228 whole entry): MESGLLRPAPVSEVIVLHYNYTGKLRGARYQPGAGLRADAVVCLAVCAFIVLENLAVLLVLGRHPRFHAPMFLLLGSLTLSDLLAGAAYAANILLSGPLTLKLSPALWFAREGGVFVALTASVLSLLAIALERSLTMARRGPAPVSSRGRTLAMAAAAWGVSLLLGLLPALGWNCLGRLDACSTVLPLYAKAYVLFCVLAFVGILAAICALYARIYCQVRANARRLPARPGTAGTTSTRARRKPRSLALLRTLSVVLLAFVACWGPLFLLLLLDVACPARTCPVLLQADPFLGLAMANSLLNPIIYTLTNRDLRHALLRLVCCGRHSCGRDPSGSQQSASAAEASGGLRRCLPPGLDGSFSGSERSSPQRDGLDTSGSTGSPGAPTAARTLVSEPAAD

SMILES | EC50 (human S1PR5) | EC50 (human S1PR4) | EC50 (human S1PR1)
O=C(O)C1CN(C2COc3cc(OCCc4ccccc4)ccc3C2)C1 (stereo not drawn) [Compound 226, 1-(7-phenethyloxychroman-3-yl)azetidine-3-carboxylic acid] | 1000 to 10000 nM | > 1000 nM | > 1000 nM
O=C(O)COC1CCc2cc(OCc3ccccc3C(F)(F)F)ccc2C1 (stereo not drawn) [Compound 196, 2-[6-[[2-(trifluoromethyl)phenyl]methoxy]tetralin-2-yl]oxyacetic acid] | 100 to 1000 nM | > 1000 nM | > 1000 nM
CCc1cccc(Cl)c1COc1ccc2c(c1)OCC(N(C)CC(=O)O)C2 (stereo not drawn) [Compound 124, N-(7-((2-chloro-6-ethylbenzyl)oxy)chroman-3-yl)-N-methylglycine] | < 10 nM | < 1000 nM | > 1000 nM
O=C(O)COC1CCc2cc(OCc3cc(Cl)ccc3F)ccc2C1 (stereo not drawn) [Compound 174, 2-[6-[(5-chloro-2-fluoro-phenyl)methoxy]tetralin-2-yl]oxyacetic acid] | 1000 to 10000 nM | > 1000 nM | > 1000 nM
O=C(O)CNC1COc2cc(OCC3CCCCC3)ccc2C1 (stereo not drawn) [Compound 113, 2-[[7-(cyclohexylmethoxy)chroman-3-yl]amino]acetic acid] | 100 to 1000 nM | > 1000 nM | > 1000 nM
O=C(O)COC1CCc2cc(OCc3c(F)cccc3F)ccc2C1 (stereo not drawn) [Compound 159, 2-[6-[(2,6-difluorophenyl)methoxy]tetralin-2-yl]oxyacetic acid] | 1000 to 10000 nM | > 1000 nM | > 1000 nM
O=C(O)COC1CCc2cc(OCc3cccc(F)c3)ccc2C1 (stereo not drawn) [Compound 198, 2-[6-[(3-fluorophenyl)methoxy]tetralin-2-yl]oxyacetic acid] | 1000 to 10000 nM | > 1000 nM | > 1000 nM
O=C(O)COC1CCc2cc(OCc3cc(C(F)(F)F)ccc3F)ccc2C1 (stereo not drawn) [Compound 172, 2-[6-[[2-fluoro-5-(trifluoromethyl)phenyl]methoxy]tetralin-2-yl]oxyacetic acid] | 1000 to 10000 nM | > 1000 nM | > 1000 nM
O=C(O)CCOC1CCc2cc(OCc3cccc(Cl)c3Cl)ccc2C1 (stereo not drawn) [Compound 189, 3-[6-[(2,3-dichlorophenyl)methoxy]tetralin-2-yl]oxypropanoic acid] | 1000 to 10000 nM | > 1000 nM | > 1000 nM
Cc1cc(F)cc(COc2ccc3c(c2)OCC(N2CC(C(=O)O)C2)C3)c1 (stereo not drawn) [Compound 87, 1-[7-[(3-fluoro-5-methyl-phenyl)methoxy]chroman-3-yl]azetidine-3-carboxylic acid] | 1000 to 10000 nM | > 1000 nM | > 1000 nM
CSc1ccc(COc2ccc3c(c2)CCC(OCC(=O)O)C3)cc1 (stereo not drawn) [Compound 201, 2-[6-[(4-methylsulfanylphenyl)methoxy]tetralin-2-yl]oxyacetic acid] | 1000 to 10000 nM | > 1000 nM | > 1000 nM
O=C(O)C1CN(C2COc3cc(OCc4ccccc4C(F)(F)F)ccc3C2)C1 (stereo not drawn) [Compound 62, 1-(7-((2-(trifluoromethyl)benzyl)oxy)chroman-3-yl)azetidine-3-carboxylic acid] | 10 to 100 nM | > 1000 nM | > 1000 nM
Cc1c(F)cccc1COc1ccc2c(c1)OCC(N1CC(C(=O)O)C1)C2 (stereo not drawn) [Compound 96, 1-[7-[(3-fluoro-2-methyl-phenyl)methoxy]chroman-3-yl]azetidine-3-carboxylic acid] | 100 to 1000 nM | > 1000 nM | > 1000 nM
CCc1cccc(Cl)c1COc1ccc2c(c1)CCC(OCC(=O)O)C2 (stereo not drawn) [Compound 142] | < 10 nM | > 1000 nM | > 1000 nM
Cc1cccc(COc2ccc3c(c2)OCC(N2CC(C(=O)O)C2)C3)c1 (stereo not drawn) [Compound 58, 1-(7-((3-methylbenzyl)oxy)chroman-3-yl)azetidine-3-carboxylic acid] | 1000 to 10000 nM | > 1000 nM | > 1000 nM
CN(CC(=O)O)C1COc2cc(OCc3ccc(OCc4cccc(Cl)c4)cc3)ccc2C1 (stereo not drawn) [Compound 134, N-(7-((4-((3-chlorobenzyl)oxy)benzyl)oxy)chroman-3-yl)-N-methylglycine] | < 10 nM | > 1000 nM | > 1000 nM
O=C(O)C1CN(C2CCOc3cc(OCc4c(Cl)cccc4Cl)c(F)cc32)C1 (stereo not drawn) [Compound 223, 1-[7-[(2,6-dichlorophenyl)methoxy]-6-fluoro-chroman-4-yl]azetidine-3-carboxylic acid] | < 10 nM | > 1000 nM | > 1000 nM

Continued, values first:

EC50 (human S1PR5) | EC50 (human S1PR4) | EC50 (human S1PR1) | SMILES
1000 to 10000 nM | > 1000 nM | > 1000 nM | O=C(O)C1CN(C2COc3cc(OCc4ccc5cc(F)ccc5n4)ccc3C2)C1 (stereo not drawn) [Compound 108, 1-[7-[(6-fluoro-2-quinolyl)methoxy]chroman-3-yl]azetidine-3-carboxylic acid]
100 to 1000 nM | > 1000 nM | > 1000 nM | O=C(O)COC1CCc2cc(OCc3cc(F)ccc3F)ccc2C1 (stereo not drawn) [Compound 163, 2-[6-[(2,5-difluorophenyl)methoxy]tetralin-2-yl]oxyacetic acid]
10 to 100 nM | > 1000 nM | > 1000 nM | CCc1cccc(Cl)c1COc1ccc2c(c1)CCC(OCC(=O)O)C2 (single isomer, unassigned) [Compound 240]
< 10 nM | < 1000 nM | > 1000 nM | CCc1cccc(F)c1COc1ccc2c(c1)OCC(N1CCC(CC(=O)O)C1)C2 (stereo not drawn) [Compound 130, 2-(1-(7-((2-ethyl-6-fluorobenzyl)oxy)chroman-3-yl)pyrrolidin-3-yl)acetic acid]
< 10 nM | < 1000 nM | > 1000 nM | CCc1cccc(F)c1COc1ccc2c(c1)OCC(N1CCC(C(=O)O)C1)C2 (stereo not drawn) [Compound 127, 1-(7-((2-ethyl-6-fluorobenzyl)oxy)chroman-3-yl)pyrrolidine-3-carboxylic acid]
1000 to 10000 nM | > 1000 nM | > 1000 nM | CSc1ccc(COc2ccc3c(c2)CCC(OCCC(=O)O)C3)cc1 (stereo not drawn) [Compound 182, 3-[6-[(4-methylsulfanylphenyl)methoxy]tetralin-2-yl]oxypropanoic acid]
10 to 100 nM | > 1000 nM | > 1000 nM | O=C(O)C1CN(C2COc3cc(C#Cc4cccc(F)c4F)ccc3C2)C1 (stereo not drawn) [Compound 26, 1-(7-((2,3-difluorophenyl)ethynyl)chroman-3-yl)azetidine-3-carboxylic acid]
100 to 1000 nM | > 1000 nM | > 1000 nM | O=C(O)C1CN(C2COc3cc(OCC4CCCCC4)ccc3C2)C1 (stereo not drawn) [Compound 109, 1-[7-(cyclohexylmethoxy)chroman-3-yl]azetidine-3-carboxylic acid]
1000 to 10000 nM | > 1000 nM | > 1000 nM | O=C(O)COC1CCc2cc(OCc3ccc(OC(F)(F)F)cc3)ccc2C1 (stereo not drawn) [Compound 203, 2-[6-[[4-(trifluoromethoxy)phenyl]methoxy]tetralin-2-yl]oxyacetic acid]
< 10 nM | > 1000 nM | > 1000 nM | CCc1cccc(Cl)c1COc1ccc2c(c1)OCC(OCC(=O)O)C2 (stereo not drawn) [Compound 233, ((7-((2-chloro-6-ethylbenzyl)oxy)chroman-3-yl)oxy)acetic acid]
10 to 100 nM | > 1000 nM | > 1000 nM | CN(CC(=O)O)C1COc2cc(OCc3ccc(OCc4ccc(Cl)cc4)cc3)ccc2C1 (stereo not drawn) [Compound 135, N-(7-((4-((4-chlorobenzyl)oxy)benzyl)oxy)chroman-3-yl)-N-methylglycine]
